Measured values: paper PMC9405973, “Altered Conformational Landscape upon Sensing Guanine Nucleotides in a Disease Mutant of Elongation Factor-like 1 (EFL1) GTPase” (Biomolecules, 2022)

How the values were obtained:
[1] = target: T1, Efl1 R1086Q•Sdo1 (Saccharomyces cerevisiae, UniProt P53893, R1086Q); assay: ITC: binding of guanine nucleotides to pre-formed complex Efl1 R1086Q•Sdo1
T1 construct: made in house; host or cells: Efl1: Saccharomyces cerevisiae; Sdo1: Escherichia coli C41
Procedure: (§1) All calorimetric measurements were carried out using MicroCal^TM iTC200 System (GE Healthcare, Northampton, MA, USA) in a temperature range of 25–35 °C. Experiments were performed in a buffer consisting of 50 mM Tris-HCl (pH 8.0), 150 mM NaCl, 100 µM DTT, and 5% glycerol. In the titrations with Mg^2+-bound nucleotides, both the ligand and protein solutions contained 5 mM MgCl2. In the case of titrations with Mg^2+-free nucleotide, both the ligand and protein solutions were supplemented with 2 mM EDTA to sequester any residual trace of metal ions in solution. Protein samples and ligands were prepared in the exact same buffer prior to each titration. Protein concentration in the cell comprised 30–50 µM GTPase, while the ligand concentration in the syringe was 2–3 mM for GTP, MgGTP, GDP, and MgGDP. To ensure measuring the interaction of the complex Efl1 R1086Q•Sdo1 with the nucleotide, an eight-fold concentration excess of Sdo1 was used compared with that of the enzyme. […] The titration schedule consisted of 15–20 consecutive injections of the ligand with 5 min intervals between injections and a stirring rate of 700 rpm. The dilution heat of the ligand was obtained by adding the ligand to a buffer solution under identical conditions and with the same injection schedule used for the protein sample. All samples were degassed for 10 min prior to the experiment.
(§2) The binding isotherms obtained for the isolated GTPase in the presence of Mg(II) were analysed using a ternary model in which the protein can bind to the free nucleotide (G(D)TP) or that bound to one magnesium ion (MgG(D)TP); additionally, GTP may also exist in the form of Mg2GTP, which is not recognised by the protein. The derivation of this coupled-equilibria model can be reviewed in [6, 31]. The binding constant (Kb), the enthalpy change (∆Hb), and the stoichiometry (n) were obtained with the non-linear routines implemented in Origin 5.0 (OriginLab, Co., Northampton, MA, USA) using a one-binding-site model as described in [32, 33]. The heterotropic cooperativity for the binding of guanine nucleotides and Sdo1 to Efl1 R1086Q were calculated as previously described in [6, 32]. The cooperative effects of Mg(II) on the binding of guanine nucleotides to Efl1 R1086Q alone and bound to Sdo1 were calculated as follows:κ = KE-MG/KE-G κ = KES-MG/KES-G Δh = ΔHE-MG − ΔHE-G Δh = ΔHES-MG − ΔHES-G where subscripts E-MG and E-G stand for the association of the metal-bound and metal-free guanine nucleotide with mutant Efl1, respectively. Corresponding expressions applied to the heterotropic cooperativity of the binding of nucleotides to the preformed complex, Efl1•Sdo1 (ES).
(§3) The impact of Sdo1 on the binding of Efl1 R1086Q to guanine nucleotides in the presence of magnesium ions is contained in KES-MG and ΔHES-MG relative to the KE-S and ΔHE-S values; analogous ratios report the effects in the absence of Mg(II):κ = KES-MG/KE-S κ = KES-G/KE-G Δh = ΔHES-MG − ΔHE-S Δh = ΔHES-G − ΔHE-G
(§4) The corresponding cooperative entropy change was calculated as:TΔs = Δh − Δg = Δh + RTlnκ
(§5) The detailed methodology and equations to compute the changes in the accessible surface area (∆ASA) of the GTPase upon binding to nucleotides and the ∆S energetic-based parameters are reported in [6]. Briefly, the water-accessible areas (ASAs) were computed using programme NACCESS, while the changes in accessible surface area (ΔASA) upon the formation of each GTPase–nucleotide complex were estimated considering the difference between the complex and the sum of the free interacting partners. The calculated polar (ΔASAp) and apolar (ΔASAap) area changes were subsequently used to estimate the free molecular partners. […]

[2] = target: T2, Efl1 R1086Q (Saccharomyces cerevisiae, UniProt P53893, R1086Q); assay: Isothermal titration calorimetry (ITC): binding of guanine nucleotides or Sdo1 to Efl1 R1086Q; details: for Nconfres (number of residues changing conformation, absolute value) / ΔCpb: +Mg^2+; for Nconfres (number of residues changing conformation, absolute value): 30 °C; for ΔCpb: guanine nucleotide, from ΔHb at 25–35 °C
T2 construct: made in house; host or cells: Saccharomyces cerevisiae
T2 sequence (P53893 whole entry R1086Q): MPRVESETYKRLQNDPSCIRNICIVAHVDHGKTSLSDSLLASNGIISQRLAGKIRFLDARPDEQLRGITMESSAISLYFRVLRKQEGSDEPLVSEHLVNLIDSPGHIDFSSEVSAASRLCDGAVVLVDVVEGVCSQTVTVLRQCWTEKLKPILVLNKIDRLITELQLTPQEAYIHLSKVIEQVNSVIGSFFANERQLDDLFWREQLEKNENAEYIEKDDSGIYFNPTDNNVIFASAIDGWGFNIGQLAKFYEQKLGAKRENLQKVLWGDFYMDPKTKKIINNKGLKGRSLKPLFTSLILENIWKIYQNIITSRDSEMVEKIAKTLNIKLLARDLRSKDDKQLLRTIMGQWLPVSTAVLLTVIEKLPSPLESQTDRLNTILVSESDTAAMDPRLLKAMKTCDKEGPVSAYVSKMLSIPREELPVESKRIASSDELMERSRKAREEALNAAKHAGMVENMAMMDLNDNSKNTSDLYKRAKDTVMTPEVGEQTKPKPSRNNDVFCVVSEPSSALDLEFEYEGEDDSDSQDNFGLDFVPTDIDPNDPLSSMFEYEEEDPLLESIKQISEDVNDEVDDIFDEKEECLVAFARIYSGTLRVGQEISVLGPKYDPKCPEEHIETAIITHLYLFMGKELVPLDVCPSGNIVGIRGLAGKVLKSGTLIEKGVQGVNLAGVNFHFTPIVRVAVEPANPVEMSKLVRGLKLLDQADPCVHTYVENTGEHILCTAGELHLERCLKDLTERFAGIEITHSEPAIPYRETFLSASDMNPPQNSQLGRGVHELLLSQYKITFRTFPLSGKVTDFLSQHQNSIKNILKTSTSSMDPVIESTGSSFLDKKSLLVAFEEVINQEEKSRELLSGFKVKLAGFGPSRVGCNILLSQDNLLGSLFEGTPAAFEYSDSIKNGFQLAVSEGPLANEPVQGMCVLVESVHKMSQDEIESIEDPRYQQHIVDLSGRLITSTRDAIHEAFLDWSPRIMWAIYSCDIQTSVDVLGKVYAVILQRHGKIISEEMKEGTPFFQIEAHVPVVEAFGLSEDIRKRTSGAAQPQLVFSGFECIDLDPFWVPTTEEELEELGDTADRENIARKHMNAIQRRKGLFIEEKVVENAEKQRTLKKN
Procedure: as §1, §2, §3, §4, §5

[3] = target: T3, Efl1 R1086Q P151L (Saccharomyces cerevisiae, UniProt P53893, P151L/R1086Q); assay: ITC: binding of GTP to double mutant Efl1 R1086Q P151L; details: +Mg^2+, from ΔHb at 25–35 °C
T3 construct: made in house; host or cells: Saccharomyces cerevisiae
T3 sequence (P53893 whole entry P151L/R1086Q): as the sequence (P53893 whole entry R1086Q) above, with P151L counted along it

[4] = system: wild-type Efl1; details: guanine nucleotide, +Mg^2+; cited from earlier work

T1 sequence (P53893 whole entry R1086Q): as the sequence (P53893 whole entry R1086Q) above
T1 sequence (Q07953 whole entry, further chain): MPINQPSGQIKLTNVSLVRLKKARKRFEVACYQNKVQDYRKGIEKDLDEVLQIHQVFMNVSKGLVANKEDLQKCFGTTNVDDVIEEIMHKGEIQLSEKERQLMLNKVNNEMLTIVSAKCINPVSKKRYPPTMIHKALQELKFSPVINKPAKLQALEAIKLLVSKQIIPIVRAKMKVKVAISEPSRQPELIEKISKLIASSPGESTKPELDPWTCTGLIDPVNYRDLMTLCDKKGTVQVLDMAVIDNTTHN

Substance | ΔΔCpb (Efl1 R1086Q•Sdo1 vs isolated enzyme) ([1]; presence of magnesium ions) | increase in binding enthalpy as temperature increased ([2]; 25 °C to 35 °C) | Nconfres (number of residues changing conformation, absolute value) [2] | ΔCpb [2] | surface buried by the conformational change ([2]; refers to Table 3, 30 °C) | ΔCpb [3] | Nconfres (number of residues changing conformation, absolute value) ([1]; +Mg^2+, 30 °C) | ΔCpb ([1]; +Mg^2+, from ΔHb at 25–35 °C) | additional residues modified with respect to the isolated enzyme ([1]; presence of magnesium ions) | fold increase in affinity from 25 °C to 35 °C ([2]; 35 °C vs 25 °C) | ΔCpb [4]
MgGDP | −45 cal mol^−1 K^−1 | ~ 3 kcal mol^−1 | 21 | −270 cal mol^−1 K^−1 | ~ 1000 Å | – | – | – | – | – | –
MgGTP | −410 cal mol^−1 K^−1 | – | 3 | 10 cal mol^−1 K^−1 | – | −220 cal mol^−1 K^−1 | 36 | −400 cal mol^−1 K^−1 | 40 | 1.2 fold | −560 cal mol^−1 K^−1
